In publication PMC3639963, “A New Class of Small Molecule Inhibitor of BMP Signaling” (PLoS ONE, 2013):

Experiments:
Assay in all cases: Nanosyn kinase profiling
Type in all cases: biochemical
Settings in all cases: read-out: Percentage inhibition; for inhibition at 0.1 µM: 0.1 µM inhibitor; for inhibition at 1 µM: 1 µM inhibitor
PAK5 = target: T1, PAK5 (Homo sapiens, UniProt Q9P286)
T1 construct: purchased Nanosyn (enzymatic panel); SGC in-house recombinant human kinases (DSF panel); Invitrogen (ALK1-6)
Method in brief: (§1)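 Percent inhibition of each kinase was measured with the inhibitor at 0.1 µM and at 1 µM, as part of a 200-kinase human selectivity panel.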

CDK3/cycE = target: T2, CDK3/cycE (Homo sapiens, UniProt Q00526)
T2 construct: purchased Nanosyn (enzymatic panel); SGC in-house recombinant human kinases (DSF panel); Invitrogen (ALK1-6)
Method in brief: as §1

CLK3 = target: T3, CLK3 (Homo sapiens, UniProt P49761)
T3 construct: purchased Nanosyn (enzymatic panel); SGC in-house recombinant human kinases (DSF panel); Invitrogen (ALK1-6)
Method in brief: as §1

PKCα = target: T4, PKCα (Homo sapiens, UniProt P17252)
T4 construct: purchased Nanosyn (enzymatic panel); SGC in-house recombinant human kinases (DSF panel); Invitrogen (ALK1-6)
Method in brief: as §1

JAK1 = target: T5, JAK1 (Homo sapiens, UniProt P23458)
T5 construct: purchased Nanosyn (enzymatic panel); SGC in-house recombinant human kinases (DSF panel); Invitrogen (ALK1-6)
Method in brief: as §1

MAP4K2 = target: T6, MAP4K2 (Homo sapiens, UniProt Q12851)
T6 construct: purchased Nanosyn (enzymatic panel); SGC in-house recombinant human kinases (DSF panel); Invitrogen (ALK1-6)
T6 sequence (Q12851 1-820): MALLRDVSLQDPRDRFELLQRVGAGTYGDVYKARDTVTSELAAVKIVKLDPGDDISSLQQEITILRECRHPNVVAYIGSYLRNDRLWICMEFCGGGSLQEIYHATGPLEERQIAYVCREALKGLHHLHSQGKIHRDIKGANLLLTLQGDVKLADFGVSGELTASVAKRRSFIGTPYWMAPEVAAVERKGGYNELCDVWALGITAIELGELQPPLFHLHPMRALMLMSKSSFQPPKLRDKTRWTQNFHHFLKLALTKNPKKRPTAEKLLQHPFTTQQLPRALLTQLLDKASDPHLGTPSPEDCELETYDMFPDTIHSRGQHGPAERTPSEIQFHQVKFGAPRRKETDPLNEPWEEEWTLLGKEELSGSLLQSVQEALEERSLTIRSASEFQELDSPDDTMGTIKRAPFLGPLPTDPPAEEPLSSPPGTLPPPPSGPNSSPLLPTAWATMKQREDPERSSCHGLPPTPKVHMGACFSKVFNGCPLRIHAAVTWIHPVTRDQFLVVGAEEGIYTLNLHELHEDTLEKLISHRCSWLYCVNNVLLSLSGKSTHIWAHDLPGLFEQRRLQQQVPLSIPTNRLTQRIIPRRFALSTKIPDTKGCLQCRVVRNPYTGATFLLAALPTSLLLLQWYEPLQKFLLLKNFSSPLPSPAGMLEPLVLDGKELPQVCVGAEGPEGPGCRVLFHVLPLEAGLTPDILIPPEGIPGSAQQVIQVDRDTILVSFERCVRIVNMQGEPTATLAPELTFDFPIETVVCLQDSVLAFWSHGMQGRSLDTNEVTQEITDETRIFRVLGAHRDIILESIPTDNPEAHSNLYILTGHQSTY
Method in brief: as §1

TIE2 = target: T7, TIE2 (Homo sapiens, UniProt Q02763)
T7 construct: purchased Nanosyn (enzymatic panel); SGC in-house recombinant human kinases (DSF panel); Invitrogen (ALK1-6)
Method in brief: as §1

CK2 = target: T8, CK2 (Homo sapiens, UniProt P68400)
T8 construct: purchased Nanosyn (enzymatic panel); SGC in-house recombinant human kinases (DSF panel); Invitrogen (ALK1-6)
Method in brief: as §1

BRSK1 = target: T9, BRSK1 (Homo sapiens, UniProt Q8TDC3)
T9 construct: purchased Nanosyn (enzymatic panel); SGC in-house recombinant human kinases (DSF panel); Invitrogen (ALK1-6)
T9 sequence (Q8TDC3 1-778): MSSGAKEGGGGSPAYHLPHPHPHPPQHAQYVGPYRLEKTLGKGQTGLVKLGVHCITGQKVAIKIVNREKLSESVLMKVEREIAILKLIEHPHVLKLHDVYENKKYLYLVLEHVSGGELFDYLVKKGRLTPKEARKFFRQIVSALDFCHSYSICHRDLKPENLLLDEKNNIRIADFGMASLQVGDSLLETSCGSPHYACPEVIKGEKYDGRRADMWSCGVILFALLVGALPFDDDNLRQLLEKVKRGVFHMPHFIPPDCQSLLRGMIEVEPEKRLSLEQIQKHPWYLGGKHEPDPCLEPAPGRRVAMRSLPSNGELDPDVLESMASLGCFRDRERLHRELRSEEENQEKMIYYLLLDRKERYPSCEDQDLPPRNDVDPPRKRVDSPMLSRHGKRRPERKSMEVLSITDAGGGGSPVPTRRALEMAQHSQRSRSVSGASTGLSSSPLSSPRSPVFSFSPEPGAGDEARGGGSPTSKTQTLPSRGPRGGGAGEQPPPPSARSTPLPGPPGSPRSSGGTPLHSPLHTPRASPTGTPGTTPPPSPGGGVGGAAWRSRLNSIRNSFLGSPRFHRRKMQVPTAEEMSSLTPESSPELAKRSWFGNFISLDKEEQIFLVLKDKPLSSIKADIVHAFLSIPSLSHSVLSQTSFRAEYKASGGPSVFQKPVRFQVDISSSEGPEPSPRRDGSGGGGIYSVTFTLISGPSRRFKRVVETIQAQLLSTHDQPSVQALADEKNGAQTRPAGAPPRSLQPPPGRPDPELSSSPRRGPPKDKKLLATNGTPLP
Method in brief: as §1

CDK4/cycD = target: T10, CDK4/cycD (Homo sapiens, UniProt P11802)
T10 construct: purchased Nanosyn (enzymatic panel); SGC in-house recombinant human kinases (DSF panel); Invitrogen (ALK1-6)
Method in brief: as §1

SRC = target: T11, SRC (Homo sapiens, UniProt P12931)
T11 construct: purchased Nanosyn (enzymatic panel); SGC in-house recombinant human kinases (DSF panel); Invitrogen (ALK1-6)
Method in brief: as §1

FYN = target: T12, FYN (Homo sapiens, UniProt P06241)
T12 construct: purchased Nanosyn (enzymatic panel); SGC in-house recombinant human kinases (DSF panel); Invitrogen (ALK1-6)
Method in brief: as §1

AKT2 = target: T13, AKT2 (Homo sapiens, UniProt P31751)
T13 construct: purchased Nanosyn (enzymatic panel); SGC in-house recombinant human kinases (DSF panel); Invitrogen (ALK1-6)
Method in brief: as §1

T1 sequence (Q9P286 whole entry): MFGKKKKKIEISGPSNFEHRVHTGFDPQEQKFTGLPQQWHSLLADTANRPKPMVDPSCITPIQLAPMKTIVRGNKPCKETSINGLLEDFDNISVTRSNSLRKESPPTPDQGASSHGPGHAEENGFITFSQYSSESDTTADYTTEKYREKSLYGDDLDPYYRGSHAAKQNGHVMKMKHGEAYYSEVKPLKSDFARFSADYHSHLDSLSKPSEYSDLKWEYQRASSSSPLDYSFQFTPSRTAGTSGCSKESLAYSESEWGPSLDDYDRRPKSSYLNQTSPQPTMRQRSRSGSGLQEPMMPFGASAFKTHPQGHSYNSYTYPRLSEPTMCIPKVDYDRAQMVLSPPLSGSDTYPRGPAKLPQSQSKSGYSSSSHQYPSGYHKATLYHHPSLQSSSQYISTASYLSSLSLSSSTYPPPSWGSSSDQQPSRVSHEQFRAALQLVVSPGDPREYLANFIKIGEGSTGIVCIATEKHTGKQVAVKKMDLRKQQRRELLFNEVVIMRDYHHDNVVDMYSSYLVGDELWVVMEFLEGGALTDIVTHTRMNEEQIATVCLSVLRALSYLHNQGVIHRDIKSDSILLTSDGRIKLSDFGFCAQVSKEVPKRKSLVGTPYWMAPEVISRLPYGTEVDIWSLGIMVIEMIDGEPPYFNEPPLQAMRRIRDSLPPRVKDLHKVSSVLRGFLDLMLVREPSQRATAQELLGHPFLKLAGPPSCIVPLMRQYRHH
T10 sequence (P11802 whole entry): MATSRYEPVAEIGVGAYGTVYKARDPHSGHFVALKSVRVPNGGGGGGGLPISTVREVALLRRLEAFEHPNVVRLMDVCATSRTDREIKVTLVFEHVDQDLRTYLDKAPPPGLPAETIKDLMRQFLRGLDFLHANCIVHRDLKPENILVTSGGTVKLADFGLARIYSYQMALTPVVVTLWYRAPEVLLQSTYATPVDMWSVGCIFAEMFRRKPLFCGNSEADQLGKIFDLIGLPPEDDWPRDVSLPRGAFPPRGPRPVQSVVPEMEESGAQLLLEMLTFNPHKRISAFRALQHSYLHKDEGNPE
T10 sequence (P24385 whole entry partner): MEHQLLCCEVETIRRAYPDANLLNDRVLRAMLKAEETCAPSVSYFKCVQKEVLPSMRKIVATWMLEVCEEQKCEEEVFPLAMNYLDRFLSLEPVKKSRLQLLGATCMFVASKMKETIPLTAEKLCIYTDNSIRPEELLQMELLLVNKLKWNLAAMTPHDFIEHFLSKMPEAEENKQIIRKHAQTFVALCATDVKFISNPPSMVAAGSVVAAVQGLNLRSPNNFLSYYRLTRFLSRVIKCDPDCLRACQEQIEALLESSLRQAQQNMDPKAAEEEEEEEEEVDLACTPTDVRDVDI
T12 sequence (P06241 whole entry): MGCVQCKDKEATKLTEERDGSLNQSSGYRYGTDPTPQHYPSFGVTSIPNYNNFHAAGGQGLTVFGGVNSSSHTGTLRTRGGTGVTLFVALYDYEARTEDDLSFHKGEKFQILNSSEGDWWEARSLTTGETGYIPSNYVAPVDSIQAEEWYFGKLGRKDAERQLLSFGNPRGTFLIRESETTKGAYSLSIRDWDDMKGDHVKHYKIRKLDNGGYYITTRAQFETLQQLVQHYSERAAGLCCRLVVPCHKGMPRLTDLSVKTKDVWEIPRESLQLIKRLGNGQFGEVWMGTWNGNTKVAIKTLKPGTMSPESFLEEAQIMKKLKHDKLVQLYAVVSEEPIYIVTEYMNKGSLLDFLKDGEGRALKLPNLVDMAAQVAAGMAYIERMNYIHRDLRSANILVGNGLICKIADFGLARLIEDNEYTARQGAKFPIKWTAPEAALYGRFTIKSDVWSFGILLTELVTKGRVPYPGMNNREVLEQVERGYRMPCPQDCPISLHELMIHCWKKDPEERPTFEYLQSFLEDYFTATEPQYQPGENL
T2 sequence (Q00526 whole entry): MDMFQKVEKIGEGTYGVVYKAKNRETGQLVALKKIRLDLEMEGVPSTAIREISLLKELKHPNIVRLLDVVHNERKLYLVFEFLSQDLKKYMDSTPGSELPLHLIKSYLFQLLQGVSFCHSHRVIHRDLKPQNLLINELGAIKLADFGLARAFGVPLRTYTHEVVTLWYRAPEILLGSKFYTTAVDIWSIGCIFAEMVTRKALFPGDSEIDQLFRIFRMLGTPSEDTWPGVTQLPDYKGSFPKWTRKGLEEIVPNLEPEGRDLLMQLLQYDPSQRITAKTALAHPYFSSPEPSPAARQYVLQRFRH
T2 sequence (P24864 whole entry partner): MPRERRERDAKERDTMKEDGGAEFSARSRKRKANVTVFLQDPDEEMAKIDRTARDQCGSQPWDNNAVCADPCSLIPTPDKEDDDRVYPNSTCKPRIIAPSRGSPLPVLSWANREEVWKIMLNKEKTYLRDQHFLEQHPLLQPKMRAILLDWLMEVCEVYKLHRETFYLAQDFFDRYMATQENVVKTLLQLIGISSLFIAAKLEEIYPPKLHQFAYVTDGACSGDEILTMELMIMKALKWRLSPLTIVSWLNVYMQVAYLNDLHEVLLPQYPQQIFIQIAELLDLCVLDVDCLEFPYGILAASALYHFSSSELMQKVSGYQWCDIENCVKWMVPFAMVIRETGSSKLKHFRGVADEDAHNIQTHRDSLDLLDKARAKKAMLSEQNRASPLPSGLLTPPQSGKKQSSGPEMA
T3 sequence (P49761 whole entry): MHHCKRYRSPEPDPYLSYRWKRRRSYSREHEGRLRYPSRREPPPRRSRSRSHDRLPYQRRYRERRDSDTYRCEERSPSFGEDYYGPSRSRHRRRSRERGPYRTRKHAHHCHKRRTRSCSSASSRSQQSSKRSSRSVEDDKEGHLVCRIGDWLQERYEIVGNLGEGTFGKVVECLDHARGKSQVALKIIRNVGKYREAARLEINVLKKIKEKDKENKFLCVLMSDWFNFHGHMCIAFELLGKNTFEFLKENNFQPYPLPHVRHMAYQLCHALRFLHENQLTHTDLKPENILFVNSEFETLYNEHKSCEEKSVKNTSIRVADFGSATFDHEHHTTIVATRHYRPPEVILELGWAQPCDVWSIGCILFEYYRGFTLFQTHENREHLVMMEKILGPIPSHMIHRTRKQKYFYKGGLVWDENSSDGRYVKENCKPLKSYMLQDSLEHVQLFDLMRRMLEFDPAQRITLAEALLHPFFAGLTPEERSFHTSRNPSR
T13 sequence (P31751 whole entry): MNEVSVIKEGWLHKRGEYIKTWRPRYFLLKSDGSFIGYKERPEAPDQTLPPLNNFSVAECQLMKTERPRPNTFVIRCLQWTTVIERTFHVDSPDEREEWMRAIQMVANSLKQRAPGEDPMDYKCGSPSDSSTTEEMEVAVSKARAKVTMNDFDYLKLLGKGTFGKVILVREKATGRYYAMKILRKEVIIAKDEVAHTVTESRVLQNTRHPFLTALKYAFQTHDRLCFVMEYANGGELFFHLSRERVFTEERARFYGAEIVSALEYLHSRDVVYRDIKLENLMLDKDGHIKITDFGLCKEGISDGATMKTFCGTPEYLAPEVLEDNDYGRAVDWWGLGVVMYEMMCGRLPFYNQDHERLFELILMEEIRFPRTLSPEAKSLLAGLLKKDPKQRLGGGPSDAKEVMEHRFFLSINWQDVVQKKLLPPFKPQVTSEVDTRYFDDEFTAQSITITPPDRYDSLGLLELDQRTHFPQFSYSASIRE
T8 sequence (P68400 whole entry): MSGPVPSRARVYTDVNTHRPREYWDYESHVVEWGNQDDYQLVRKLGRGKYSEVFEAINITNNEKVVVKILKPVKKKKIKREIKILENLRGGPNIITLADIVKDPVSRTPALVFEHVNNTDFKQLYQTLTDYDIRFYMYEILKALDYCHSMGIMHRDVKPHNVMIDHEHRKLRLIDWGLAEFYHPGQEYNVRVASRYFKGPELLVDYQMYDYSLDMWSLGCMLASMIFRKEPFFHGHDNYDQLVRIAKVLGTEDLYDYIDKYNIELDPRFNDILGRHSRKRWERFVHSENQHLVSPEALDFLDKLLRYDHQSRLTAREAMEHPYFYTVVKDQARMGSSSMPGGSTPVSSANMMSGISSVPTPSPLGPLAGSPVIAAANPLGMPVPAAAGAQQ
T8 sequence (P67870 whole entry partner): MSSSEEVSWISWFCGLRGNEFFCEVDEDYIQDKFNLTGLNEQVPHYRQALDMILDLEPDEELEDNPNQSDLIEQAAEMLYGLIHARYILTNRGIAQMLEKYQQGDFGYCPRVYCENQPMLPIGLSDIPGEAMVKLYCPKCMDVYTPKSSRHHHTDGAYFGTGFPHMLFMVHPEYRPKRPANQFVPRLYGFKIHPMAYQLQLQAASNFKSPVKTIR

| Compound | inhibition at 0.1 µM (PAK5) | inhibition at 1 µM (PAK5) | inhibition at 0.1 µM (CDK3/cycE) | inhibition at 1 µM (CDK3/cycE) | inhibition at 0.1 µM (CLK3) | inhibition at 1 µM (CLK3) | inhibition at 0.1 µM (PKCα) | inhibition at 1 µM (PKCα) | inhibition at 0.1 µM (JAK1) | inhibition at 1 µM (JAK1) | inhibition at 0.1 µM (MAP4K2) | inhibition at 1 µM (MAP4K2) | inhibition at 0.1 µM (TIE2) | inhibition at 1 µM (TIE2) | inhibition at 0.1 µM (CK2) | inhibition at 1 µM (CK2) | inhibition at 0.1 µM (BRSK1) | inhibition at 1 µM (BRSK1) | inhibition at 0.1 µM (CDK4/cycD) | inhibition at 1 µM (CDK4/cycD) | further results |
| --- | --- | --- | --- | --- | --- | --- | --- | --- | --- | --- | --- | --- | --- | --- | --- | --- | --- | --- | --- | --- | --- |
| COc1cc(-c2cc(-c3cccc(O)c3)cnc2N)cc(OC)c1OC [K02288, 3-[6-amino-5-(3,4,5-trimethoxy-phenyl)-pyridin-3-yl]-phenol] | -1% | -1% | 1.6% | -91% | 1.4% | 1.5% | 0.2% | 2.2% | 0% | 0.4% | 18% | 53% | 1% | 3% | 6.2% | 2.8% | 2.3% | 0% | 0.1% | 1.3% | inhibition at 0.1 µM (SRC): 5.1%; inhibition at 1 µM (SRC): 40%; inhibition at 0.1 µM (FYN): 10%; inhibition at 1 µM (FYN): 43%; inhibition at 0.1 µM (AKT2): -2%; inhibition at 1 µM (AKT2): -1% |
| c1ccc2c(-c3cnn4cc(-c5ccc(N6CCNCC6)cc5)cnc34)ccnc2c1 [LDN-193189] | 6.2% | 8.5% | 1.6% | 7% | 0.5% | 2.6% | 1% | 1.1% | 2.7% | 4.2% | 21% | 65% | 2% | 16% | 0.7% | 4.2% | 3% | 17% | 0.8% | 8.3% | inhibition at 0.1 µM (SRC): 8%; inhibition at 1 µM (SRC): 33%; inhibition at 0.1 µM (FYN): 18%; inhibition at 1 µM (FYN): 60%; inhibition at 0.1 µM (AKT2): 1%; inhibition at 1 µM (AKT2): 1.8% |
